This is an account of results in US20250069757A1, “METHOD OF PREDICTING ADAS-COG SCORE” (WisTa Laboratories Ltd., priority 2021, published 2025).

Structures are written as SMILES.

For experiment [1], the system named is Alzheimer's disease. Kind of experiment: phase III clinical trials (TRx-237-005 and TRx-237-015) for Alzheimer's disease. The experiment is classed as in vivo, patients. Conditions: 8, 150, 200 or 250 mg/day; both trials. The text has this:
Data from a phase III clinical trials (TRx-237-005 and TRx-237-015) for Alzheimer's disease was obtained. These clinical trials involved 1162 patients. Before the trials began, each patient's baseline measurements were collected, which included the patient's sex, age, baseline ADAS-Cog and mini-mental state examination (MMSE) score.
Patients were subsequently categorised into those with ‘low’ and ‘high’ plasma levels using a threshold based on the lower limit of quantitation of the assay on Day 1. […] Additionally, each patient entered the trial either already using the standard care of therapy or not. This yielded D=4 possible combinations: “low-using”, “low-none”, “high-using” and “high-none”. The trial spanned 5 visits with 13 weeks in between each visit. At each visit t, every patient i's progressive ADAS-Cog score, Yti∈ ? , was measured and recorded.

Experiment [2] relates to Alzheimer's disease. The note with it: cited from earlier work.
Where [3] appears, read: group with 'high' plasma levels, threshold based on lower limit of quantitation of the assay on Day 1.

Regarding `CN(C)c1ccc2c(c1)Sc1cc(N(C)C)ccc1N2.CS(=O)(=O)O.CS(=O)(=O)O` [LMTM], the dose-response entry with Alzheimer's disease [1] is reported as “lack of dose-response”. Further, the “concentration-response relationships for steady-state plasma levels” value in the experiment with Alzheimer's disease [2] (8 mg/day range) is recorded as “steep concentration-response relationships”. Also, in the experiment on Alzheimer's disease [2] (setting [3]), the “differences in brain atrophy” value is recorded as “highly significant differences” and the “differences in cognitive decline” value was “highly significant differences”.
